# Reference: ChEMBL document CHEMBL1201862, “PubChem BioAssay data set” (2004)
# Active and inactive are the calls of the source. Cut-off read from the data, not from the text of the source, for most assays here: actives have a measured EC50 and inactives only a lower limit.
# Assays:
# [1] = molecular target: T1, Calpain-2 catalytic subunit (Sus scrofa, UniProt P43367); assay: pig calpain II inhibitor potency, dose response, biochemical, fluorogenic peptide substrate (AID 1420); format: functional
# T1 sequence (P43367 whole entry): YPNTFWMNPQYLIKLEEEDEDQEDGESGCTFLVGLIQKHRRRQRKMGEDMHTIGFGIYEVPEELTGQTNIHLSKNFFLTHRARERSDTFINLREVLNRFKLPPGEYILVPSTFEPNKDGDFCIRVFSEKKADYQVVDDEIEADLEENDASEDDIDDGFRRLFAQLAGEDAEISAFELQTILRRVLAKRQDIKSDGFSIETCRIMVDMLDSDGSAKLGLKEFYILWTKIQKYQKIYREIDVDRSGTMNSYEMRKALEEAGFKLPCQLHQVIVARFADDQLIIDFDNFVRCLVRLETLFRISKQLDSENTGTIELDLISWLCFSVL
# Large T antigen = Large T antigen (Simian virus 40, UniProt P03070); format: functional, Betapolyomavirus macacae;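 note: Confirmatory-stage PubChem screen for compounds that inhibit SV40 T antigen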
# Sequence of Large T antigen (P03070 whole entry): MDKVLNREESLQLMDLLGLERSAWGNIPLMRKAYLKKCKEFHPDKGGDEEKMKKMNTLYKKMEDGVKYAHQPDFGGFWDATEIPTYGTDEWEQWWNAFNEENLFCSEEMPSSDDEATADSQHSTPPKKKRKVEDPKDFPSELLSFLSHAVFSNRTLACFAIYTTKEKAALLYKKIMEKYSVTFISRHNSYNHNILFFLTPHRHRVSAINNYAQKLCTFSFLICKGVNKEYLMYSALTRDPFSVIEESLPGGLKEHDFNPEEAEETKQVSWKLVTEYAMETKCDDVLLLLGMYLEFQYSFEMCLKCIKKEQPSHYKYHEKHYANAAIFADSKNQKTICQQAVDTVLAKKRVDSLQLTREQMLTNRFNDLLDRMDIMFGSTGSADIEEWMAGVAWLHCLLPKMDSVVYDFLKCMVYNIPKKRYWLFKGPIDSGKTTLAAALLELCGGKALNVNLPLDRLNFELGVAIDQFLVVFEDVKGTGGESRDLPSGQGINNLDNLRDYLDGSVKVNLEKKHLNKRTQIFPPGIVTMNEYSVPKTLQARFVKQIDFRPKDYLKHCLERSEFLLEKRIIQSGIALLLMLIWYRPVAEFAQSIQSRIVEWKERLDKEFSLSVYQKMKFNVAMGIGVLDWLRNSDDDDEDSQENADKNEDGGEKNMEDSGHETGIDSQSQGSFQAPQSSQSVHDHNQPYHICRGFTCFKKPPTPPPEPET
# [2] = molecular target: T2, Heat shock factor protein 1 (Mus musculus, UniProt P38532); assay: inhibition of MG132-induced HSE-luciferase signal, confirmation, cell-based, NIH3T3, luminescence, dose retest (AID 2382); format: functional;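 note: NIH3T3 fibroblasts with HSF1-driven luciferase reporter stressed by proteasome inhibitor MG132; luminescence from HSF1-driven luciferase expression after 8 hours of MG132 stress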
# T2 sequence (P38532 whole entry): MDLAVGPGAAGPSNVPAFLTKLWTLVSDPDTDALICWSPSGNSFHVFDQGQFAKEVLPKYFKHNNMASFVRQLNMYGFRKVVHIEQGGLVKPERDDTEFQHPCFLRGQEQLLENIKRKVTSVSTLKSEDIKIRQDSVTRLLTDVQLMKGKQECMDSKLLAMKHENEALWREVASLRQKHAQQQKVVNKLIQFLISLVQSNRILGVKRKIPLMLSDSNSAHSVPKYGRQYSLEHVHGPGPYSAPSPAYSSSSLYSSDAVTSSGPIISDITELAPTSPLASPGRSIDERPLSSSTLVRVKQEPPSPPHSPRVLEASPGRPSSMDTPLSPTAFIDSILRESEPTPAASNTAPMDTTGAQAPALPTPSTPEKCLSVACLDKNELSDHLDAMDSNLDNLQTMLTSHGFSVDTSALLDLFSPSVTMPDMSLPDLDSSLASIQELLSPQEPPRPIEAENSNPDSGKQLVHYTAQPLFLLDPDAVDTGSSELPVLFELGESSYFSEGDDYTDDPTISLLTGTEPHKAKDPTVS
# [3] = molecular target: T3, Polyadenylate-binding protein 1 (Homo sapiens, UniProt P11940); assay: PABP1 MLLE–PAM2 interaction inhibitors, dose response, miRNA deadenylation inhibitor project, biochemical, fluorescence polarization, Cy5-PAM2 peptide, secondary (AID 602260); format: functional; details: read-out: IC50_Mean
# T3 sequence (P11940 whole entry): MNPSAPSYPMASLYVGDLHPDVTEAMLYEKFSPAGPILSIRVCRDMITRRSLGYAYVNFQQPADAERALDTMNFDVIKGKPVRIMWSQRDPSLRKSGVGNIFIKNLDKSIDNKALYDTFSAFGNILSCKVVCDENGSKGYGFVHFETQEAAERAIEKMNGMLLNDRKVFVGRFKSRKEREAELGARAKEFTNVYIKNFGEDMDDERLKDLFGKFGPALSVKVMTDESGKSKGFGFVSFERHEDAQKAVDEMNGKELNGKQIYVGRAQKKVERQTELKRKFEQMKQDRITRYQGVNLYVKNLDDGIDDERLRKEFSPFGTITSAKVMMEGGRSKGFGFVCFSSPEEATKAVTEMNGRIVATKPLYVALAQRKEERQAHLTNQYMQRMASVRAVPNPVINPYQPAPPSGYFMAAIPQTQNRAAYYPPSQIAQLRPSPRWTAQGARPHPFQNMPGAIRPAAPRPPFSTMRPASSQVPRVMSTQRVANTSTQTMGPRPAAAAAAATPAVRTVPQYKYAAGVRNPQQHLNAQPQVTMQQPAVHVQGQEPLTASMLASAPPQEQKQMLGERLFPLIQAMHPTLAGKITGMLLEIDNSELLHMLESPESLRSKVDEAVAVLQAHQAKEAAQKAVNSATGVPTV
# [4] = molecular target: T3, Polyadenylate-binding protein 1; assay: PABP1 MLLE–PAM2 binding inhibitor potency, dose response, biochemical, fluorescence polarization, FITC-PAM2 peptide (AID 602259); format: functional; details: read-out: IC50_Mean
# [5] = cytotoxicity toward NIH3T3 fibroblasts, dose response, counter-screen, cell-based, ATP luminescence, mouse fibroblasts (AID 2010); format: functional;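 note: cells exposed to compound for about 90 hours before reading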
# [6] = inhibitors of intracellular T. cruzi replication, confirmation, NIH3T3 host cells, beta-gal luminescence (AID 2044); format: functional, cell-based;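 note: intracellular parasites grown in NIH/3T3 mouse fibroblasts as host cells; luminescent beta-galactosidase reporter signal from transgenic T. cruzi replicating inside host cells; inhibitors lower the luminescence signal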
# [7] = molecular target: FAD-linked sulfhydryl oxidase ALR (Homo sapiens, UniProt P55789); assay: inhibitors of human ALR sulfhydryl oxidase, dose response, biochemical, H2O2 detection, luminescence, cherry-pick (AID 493248)
# Sequence of FAD-linked sulfhydryl oxidase ALR (P55789 whole entry): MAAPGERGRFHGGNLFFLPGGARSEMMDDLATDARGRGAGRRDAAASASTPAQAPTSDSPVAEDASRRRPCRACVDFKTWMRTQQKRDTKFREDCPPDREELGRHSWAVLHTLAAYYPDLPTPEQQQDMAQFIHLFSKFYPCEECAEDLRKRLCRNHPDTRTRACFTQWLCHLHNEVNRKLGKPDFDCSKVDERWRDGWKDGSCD
# [8] = molecular target: T4, Rac GTPase-activating protein 1 (Homo sapiens, UniProt Q9H0H5); assay: MgcRacGAP GTPase-activating activity inhibitors, confirmation, biochemical, ADP Hunter fluorescence, primary and confirmatory (AID 624330); format: functional
# T4 sequence (Q9H0H5 whole entry): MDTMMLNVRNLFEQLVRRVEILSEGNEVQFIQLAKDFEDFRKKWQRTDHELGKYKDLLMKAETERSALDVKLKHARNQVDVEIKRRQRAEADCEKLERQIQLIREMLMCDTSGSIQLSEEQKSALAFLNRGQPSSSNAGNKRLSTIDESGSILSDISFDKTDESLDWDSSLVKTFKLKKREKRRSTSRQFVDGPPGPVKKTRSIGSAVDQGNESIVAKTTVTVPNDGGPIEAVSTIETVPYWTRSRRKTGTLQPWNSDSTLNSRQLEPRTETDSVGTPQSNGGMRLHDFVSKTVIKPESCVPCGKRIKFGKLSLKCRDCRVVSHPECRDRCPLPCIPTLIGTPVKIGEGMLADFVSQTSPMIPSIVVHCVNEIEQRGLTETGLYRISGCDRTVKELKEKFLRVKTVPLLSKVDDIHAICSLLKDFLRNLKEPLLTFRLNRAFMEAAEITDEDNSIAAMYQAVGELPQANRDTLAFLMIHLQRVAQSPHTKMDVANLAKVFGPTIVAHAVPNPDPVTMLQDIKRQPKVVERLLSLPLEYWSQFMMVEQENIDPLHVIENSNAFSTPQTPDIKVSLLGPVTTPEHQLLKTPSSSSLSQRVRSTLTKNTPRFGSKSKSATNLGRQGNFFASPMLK
# [9] = Luminescence Cell-Based Dose Confirmation HTS to Identify Inhibitors of Platelet Dense Granule Release. [Related pubchem assays: 1663 (Primary HTS), 1678 (Summary of Project)]; format: functional
# [10] = molecular target: Luciferin 4-monooxygenase (Photinus pyralis, UniProt P08659); assay: firefly luciferase enzyme inhibitors, dose response, biochemical, luminescence (AID 1891)
# Sequence of Luciferin 4-monooxygenase (P08659 whole entry): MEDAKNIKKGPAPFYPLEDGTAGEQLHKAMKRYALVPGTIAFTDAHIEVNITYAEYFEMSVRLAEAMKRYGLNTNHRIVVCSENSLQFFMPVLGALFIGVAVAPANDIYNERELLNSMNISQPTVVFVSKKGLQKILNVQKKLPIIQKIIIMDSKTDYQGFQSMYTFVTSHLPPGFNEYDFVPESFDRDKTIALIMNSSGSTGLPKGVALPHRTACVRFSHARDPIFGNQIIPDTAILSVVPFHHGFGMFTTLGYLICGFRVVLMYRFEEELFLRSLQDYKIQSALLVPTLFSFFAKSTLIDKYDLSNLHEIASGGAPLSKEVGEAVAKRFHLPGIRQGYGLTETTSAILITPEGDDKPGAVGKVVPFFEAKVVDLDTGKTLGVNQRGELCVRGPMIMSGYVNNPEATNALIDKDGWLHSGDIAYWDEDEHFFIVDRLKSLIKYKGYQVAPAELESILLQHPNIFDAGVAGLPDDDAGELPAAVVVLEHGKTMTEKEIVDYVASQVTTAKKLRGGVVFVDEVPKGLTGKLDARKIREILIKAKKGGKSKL
# [11] = C. albicans growth with fluconazole, confirmation, fluorescence, retest (AID 2467); format: functional, cell-based
# [12] = NIH-3T3 fibroblast cytotoxicity, dose response, cytotoxicity control, cell-based, fluorescence, Alamar Blue, secondary assay (AID 2327); format: functional;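 note: NIH-3T3 mouse fibroblasts cultured with fluconazole at 8 µg/mL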
# cells [13] = format: functional, cell-based
# cells [14] = format: functional, cell-based; remark: listed apart in the source
# INS1 = assay: beta cell apoptosis inhibitors, cytokine rescue, dose response, luminescence, retest (AID 449756); format: functional, cell-based; details: Rattus norvegicus;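 note: cell death triggered by IL-1 beta plus TNF-alpha plus IFN-gamma mixture; protective hits raise ATP signal compared with cytokine alone wells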
# [15] = Luminescence Cell-Based Dose Confirmation HTS to Identify Activators of 5'UTR Stem-Loop Driven Alpha-Synuclein mRNA Translation in H4 Neuroglioblastoma Cells. [Related pubchem assays: 1829 (Project Summary), 1814 (Primary HTS)]; format: functional
# H4 = assay: Luminescence Cell-Based Dose Response HTS to Identify Activators of 5'UTR Stem-Loop Driven Prion Protein mRNA Translation in H4 Neuroglioblastoma Cells. [Related pubchem assays: 1829 (Project Summary), 1814 (Primary HTS)]; format: functional; details: Homo sapiens
# [16] = Luminescence Cell-Based Dose Response HTS to Identify Activators of Luciferase Translation or Activity in H4 […] Cells. [Related pubchem assays: 1829 (Project Summary), 1814 (Primary HTS)]; format: functional
# [17] = HEp-2 cell cytotoxicity, dose response, cytotoxicity control for RSV inhibitor project, HTS (AID 2410); format: functional; details: human respiratory syncytial virus
# [18] = THP-1 cell cytotoxicity, dose response, cytotoxicity control for non-replicating M. tuberculosis project (AID 489025); format: functional
structure (smiles),measurement,setting,value
COc1cccc(-n2c(SCC(=O)OC(C)C)nnc2-c2cccnc2)c1,IC50,[1],> 50 µM (not active)
C=CCOc1ccc(CNc2ccc3[nH]c(O)nc3c2)cc1OCC,IC50,Large T antigen,20.5 µM (active)
Cn1c(=O)c2c(ncn2CC(=O)Nc2cccc(S(=O)(=O)Nc3ccccc3F)c2)n(C)c1=O,EC50,[2],> 195 µM (not active)
same,IC50,[3],> 66 µM (inactive)
same,IC50,[4],> 66 µM (inactive)
S=C(NCc1ccc(Cl)cc1)NC1CCN(Cc2ccccc2)CC1,EC50,[5],> 30 µM (not active)
same,IC50,[1],18.6 µM (not active)
same,EC50,[6],2.86 µM (active)
O=C(CNCc1ccco1)Nc1ccc(N2CCCCCC2)cc1,AC50,[7],0.224 µM (active)
same,IC50,[8],84.4 µM (active)
CCCCN1C(=O)NC(=O)/C(=C(\C)NCCc2ccccc2)C1=O,IC50,[1],17.7 µM (not active)
CCCn1c(CCC(=O)O)ccc1-c1cccs1,AC50,[7],8.5 µM (active)
Sc1nncn1/N=C/c1cccc(Oc2ccccc2)c1,AC50,[7],2.09 µM (active)
CCCCc1nc2sc3c(O)ncnc3c2c2c1CCCC2,EC50,[9],> 112 µM (not active)
same,EC50,[10],> 112 µM (not active)
CCCOC(=O)Nc1ccc(C(N)=O)cc1,EC50,[9],> 112 µM (not active)
same,EC50,[10],> 112 µM (not active)
COCCN(C(=O)CSc1nnc(-c2cccc(C)c2)n1C)c1c(N)n(Cc2ccccc2)c(=O)[nH]c1=O,EC50,[11],> 38 µM (not active)
same,EC50,[12],> 160 µM (inactive)
O=C(NCc1nc2ccccc2[nH]1)c1c(F)c(F)c(F)c(F)c1F,EC50,cells [13],> 350 µM (not active)
same,EC50,cells [14],> 350 µM (not active)
CC(=O)c1cccc(NC(=O)CSC(=O)c2ccccc2)c1,EC50,cells [13],> 350 µM (not active)
same,EC50,cells [14],> 350 µM (not active)
Cc1ccc(Nc2c3c(nc4ccccc24)CCC3)cc1,EC50,cells [13],> 350 µM (not active)
same,AC50,INS1,8.95 µM (active)
same,EC50,cells [14],> 350 µM (not active)
CC1(C)C2CCC1(C)C(OCC[N+](C)(C)CC(=O)OC1CCCCC1)C2 (stereo not drawn),EC50,[11],0.743 µM (active)
same,EC50,[12],> 150 µM (inactive)
Cc1ccc(CN2[C@@H](CC(C)C)COCCS2(=O)=O)cc1,EC50,cells [13],72.7 µM (active)
same,EC50,cells [14],> 350 µM (not active)
O=C(c1ccco1)N1CCN(Cc2nc(-c3cccs3)no2)CC1,EC50,[9],> 112 µM (not active)
same,EC50,[10],> 112 µM (not active)
Nc1ccc2oc3ccc(N)cc3c(=O)c2c1,AC50,[7],1.07 µM (active)
COc1cccc(-c2nnc(S)n2Cc2ccco2)c1OC,AC50,[7],3.65 µM (active)
O=C(CCCc1ccccc1)Nc1nnc(C(F)(F)F)s1,EC50,[9],> 112 µM (not active)
same,EC50,[10],> 112 µM (not active)
CCCCNC(=O)c1cc(-c2ccc(F)cc2)on1,EC50,cells [13],45 µM (active)
same,EC50,cells [14],8.85 µM (active)
same,EC50,[15],11.9 µM (active)
same,EC50,H4,13.1 µM (active)
same,EC50,[16],24.3 µM (active)
C=C(C)CC1Nc2ccccc2NC1CC(=C)C (stereo not drawn),AC50,[7],5.56 µM (active)
O=C1CC(SC(=NCc2ccc3c(c2)OCO3)Nc2ccccc2)C(=O)N1c1ccccc1 (stereo not drawn),IC50,[1],> 50 µM (not active)
Cn1c(N)c(C(=O)COC(=O)c2ncc(Cl)c(Cl)c2Cl)c(=O)n(C)c1=O,IC50,[1],9.79 µM (active)
CC(C)(C)c1ccc(C(=O)Nc2cccc([N+](=O)[O-])c2)cc1,IC50,[1],2.13 µM (not active)
same,CC50,[17],5.38 µM (active)
O=[N+]([O-])c1ccc(NCc2ccccc2)nc1,IC50,[1],34.1 µM (not active)
O/N=C(\c1ccc2c(c1)OCCO2)C1CCCCC1,IC50,[1],25.1 µM (not active)
COc1ccccc1C(=O)Oc1ccccc1C(=O)Nc1ccccc1,EC50,cells [13],16.1 µM (active)
same,EC50,cells [14],> 350 µM (not active)
Cc1ccc(-c2ccc(/C=N/NC(=O)CN3CCCC3)o2)cc1Cl,CC50,[18],37.8 µM (active)
O=C(N/N=C\c1ccccc1OCc1ccccc1)c1ccco1,CC50,[18],39.6 µM (active)
Nc1cc(S(=O)(=O)N2CCCCC2)ccc1Oc1ccccc1,IC50,[1],20.8 µM (not active)
COc1ccc(Oc2nc(-c3ccccc3)ncc2S(=O)(=O)c2ccccc2)cc1,EC50,[9],> 112 µM (not active)
same,EC50,[10],> 112 µM (not active)
CCOc1ccc(NC(O)=C2C(=O)NC(=O)NC2=O)cc1,EC50,[9],9.93 µM (active)
same,EC50,[10],1.42 µM (active)
COc1cccc(OC)c1C(=O)Nc1ccc(N2CCCCC2)cc1,AC50,[7],7.85 µM (active)
O=C(OCCCCN1C(=O)c2ccccc2C1=O)c1ccc(S(=O)(=O)N2CCCC2)cc1,EC50,[9],> 112 µM (not active)
same,EC50,[10],> 112 µM (not active)
COc1ccccc1NS(=O)(=O)c1ccc(O)c(NC(S)=NCC2CCCO2)c1 (stereo not drawn),IC50,[3],> 66 µM (inactive)
same,IC50,[4],> 66 µM (inactive)
Cc1c(N=C(S)NNC(=O)CCC(=O)O)c(=O)n(-c2ccccc2)n1C,EC50,[9],> 112 µM (not active)
same,EC50,[10],> 112 µM (not active)
COC(=O)c1cn(C)c2ccc(S(=O)(=O)N3CCCCC3)cc2c1=O,EC50,cells [13],> 350 µM (not active)
same,EC50,cells [14],> 350 µM (not active)
O=C(CSCc1ccco1)c1cccs1,EC50,[9],> 112 µM (not active)
same,EC50,[10],> 112 µM (not active)
